Earlier results on one compound are cited in paper PMC6647941 (ACS Omega, 2019).

For the data set the following is noted: dopamine transporter tracer ref 12.

In the case of `CN1[C@H]2CC[C@@H]1[C@@H](CN(CC[S-])CC[N-]CC[S-])[C@@H](c1ccc(Cl)cc1)C2.[O]=[99Tc+4]` [^99mTc-TRODAT-1], the brain uptake is 0.40 % ID/g.
